Reference: patent US5973116A, “Compounds for targeting” (Imperial Cancer Research Technology Limited, priority 1993, dated 1999)
Read-outs that look alike come from different tables or passages of the source.

Key:
[1] = target: ScFv encoded by pRAS111 (ScFvNP, VHNP (G4S)3 VλJ558L, SEQ ID No 3); test: ELISA binding and competition of pRAS111 ScFv on a NIP15-BSA coat; parameters: species or system mouse; conditions: read-out: binding affinity for NP, Kd
Procedure: Filtered bacterial supernatants were applied to wells of a 96-well plate previously coated with […] NIP15 -BSA or […] egg lysozyme, and bound protein was detected by serial incubation with biotinylated Gαmλ antiserum and HRPO-streptavidin conjugate. Colour changes were generated by incubation with ABTS and were monitored at 405 nm.
A soluble protein present in the growth medium of JM109 (DE3)/pRAS111 cultures, but not in cultures of JM109 (DE3), binds NIP15 -BSA, but not lysozyme (FIG. 5). Filtered bacterial growth medium recovered after induction of pRAS111 protein was applied to wells of an ELISA plate coated with 10 μg.ml^-1 NIP15 -BSA (.circle-w/dot.) or 300 μg.ml^-1 hen egg lysozyme (.diamond-solid.). Bound protein was detected by serial incubation with biotinylated Gαmλ (Goat anti-mouse lambda light chain) antisera and horseradish peroxidase conjugated streptavidin diluted in blocking buffer, and colour changes generated by addition of ABTS were monitored at 405 nm. A soluble protein present in the growth medium of JM109(DE3)/pRAS111 cultures, but not in cultures of JM109(DE3), binds NIP15 -BSA, can be competed with NIP15 -BSA (FIG. 6). […] Bound protein was detected by serial incubation with biotinylated Gαmλ antisera and horseradish peroxidase conjugated streptavidin, and colour changes generated by addition of ABTS were monitored at 405 nm.

[2] = system: pRAS111 ScFvNP protein (VHNP (G4S)3 VλJ558L, SEQ ID No 3); test: ELISA-based affinity determinations of pRAS111 ScFvNP protein (methods of Mariani et al 1987 and Hogg et al 1987); assay type: binding, mouse; conditions: for Kd: antigen coat
Description: Affinity of pRAS111 ScFv for NIP was estimated firstly by adapting the method of Mariani et al (1987) Molec. Immunol. […] This approximation only holds true if the number of available binding sites per well is sufficiently low that their contribution is insignificant. Determinations of Kapp should approach Kactual as the amount of antigen per well is reduced.
To confirm the accuracy of this approach, similar estimations of K were made using the method of Hogg et al (1987) Molec. Immunol. 24, 797-801) in the absence of competing antigen, by calculating the slope of the linear portion of a plot of A450 /[ScFvNP ] v A450, where A450 /[ScFvNP ]=fKn-fK(A450), A450 is the absorbance at 450 nm, [ScFvNP ] is the concentration of added ScFvNP, n is the concentration of available binding sites and f is the valency of the ScFvNP for NIP. A value of 1 was assigned to f.

[3] = concn 5 mg ml^-1 of coating buffer, no competing antigen, f = 1, read-out: K, Hogg et al (1987) (converted)
[4] = concn 5 mg ml^-1 of coating buffer, read-out: K, Mariani et al (1987) (converted)

In the case of O=C(O)Cc1ccc(O)c([N+](=O)[O-])c1 [NP, 4-hydroxy-3-nitrophenylacetic acid], the Kd [1] is reported as 4 nM.

In the case of O=C(O)Cc1cc(I)c(O)c([N+](=O)[O-])c1 [NIP, 4-hydroxy-3-iodo-5-nitrophenylacetic acid], the “Kapp, affinity for NIP (K)” value ([2]; method of Mariani et al (1987), Ct50 = 1/Kapp, at low amount of antigen per well) is reported as 2-3×10^8 M^-1.

“NIP4 BSA: low coupling ratio NIP-BSA, 3.7 haptens per protein molecule” showed a Kd [2, 3] of 5.56 nM, a Kd [2, 4] of 4 nM and a Kd ([2]; concn 10 mg ml^-1 of coating buffer, no competing antigen, f = 1, read-out: K, Hogg et al (1987) (converted)) of 8.33 nM. It also gave a Kd ([2]; concn 10 mg ml^-1 of coating buffer, read-out: K, Mariani et al (1987) (converted)) of 3.45 nM.

In the case of “NIP16 BSA: high coupling ratio NIP-BSA, 16.4 haptens per protein molecule”, the Kd ([2]; concn 1 mg ml^-1 of coating buffer, no competing antigen, f = 1, read-out: K, Hogg et al (1987) (converted)) is reported as 1.23 nM, the Kd ([2]; concn 1 mg ml^-1 of coating buffer, read-out: K, Mariani et al (1987) (converted)) is reported as 1.22 nM and the Kd [2, 3] is reported as 0.625 nM. The Kd [2, 4] was 0.4 nM.

With “NIP conjugated to BSA: hapten NIP coupled to BSA via NIP-cap-OSu” the “affinity for NIP conjugated to BSA” value ([2]; pH 7.4) was 1-3×10^8 M^-1.
